Patent publication US20220363870A1, “Stain Resistant Additive” (Arxada AG, priority 2019, published 2022)
Where “and” joins values, the source holds several entries; their conditions need not be identical. Identical values can stand only once.

System: 4 algal species
Assay: Resistance of Paint Films to Algal Defacement (Modified ASTM Method D5589)
Format: cell-based
Design: key to 4 wk Rating / 10 wk Rating / 14 wk Rating: 0 showing no growth; 4 showing the highest growth
Conditions: for Average 4 week rating: paint of Example 1, scale 0-4
Protocol: Procedure (Modified ASTM Method D5589): • 1. Sample substrates are coated with the corresponding paint samples containing the targeted amount of additive and antimicrobial. • 2. Depending upon the test conditions, samples are subjected to UV, leaching conditions, standard conditions, or a combination thereof. Leaching was performed for up to 7 days and with or without up to 600 hr of QUV in a weathering chamber. • 3. 4 algal species are used and inoculated every 2 weeks, including up to 18 weeks. Fresh plates were replaced at weeks 4, 10, 14, and 18. • 4. Ratings are scored on a range of 0-4, with 0 showing no growth and 4 showing the highest growth.

In the case of `CCCCCCCCn1sccc1=O` [N-octylisothiazolinone], the “Average 4 week rating” value (Biocide 350 ppm + Additive 1,000 ppm) was 3.7, the “Average 4 week rating” value (Biocide 350 ppm + Additive 3,000 ppm) was 1.7 and the “Average 4 week rating” value (Biocide 350 ppm, no additive) was 2.7. The “Average 4 week rating” value (Biocide 700 ppm + Additive 1,000 ppm) was 0.7, the “Average 4 week rating” value (Biocide 700 ppm + Additive 3,000 ppm) was 0.0 and the “Average 4 week rating” value (Biocide 700 ppm, no additive) was 1.0. The “Average 4 week rating” value (Biocide 1,050 ppm + Additive 1,000 ppm) was 0.0, the “Average 4 week rating” value (Biocide 1,050 ppm + Additive 3,000 ppm) was 0.0 and the “Average 4 week rating” value (Biocide 1,050 ppm, no additive) was 1.3.
“zinc di(ethyl 4,4,4-trifluoroacetoacetate) dihydrate [Additive]” was tested, and the “Average 4 week rating” value (Additive 1,000 ppm, no biocide) was 3.7, the “Average 4 week rating” value (Additive 3,000 ppm, no biocide) was 2.0 and the “18 wk Rating” value (Conc. 0.3% in paint of Example 1, algal growth rating 0-4, 18 wk, dihydrate) was 3 and 2. The “4 wk ZOI” value (Conc. 0.3% in paint of Example 1, zone of inhibition, 4 wk) was 0, the “10 wk ZOI” value (Conc. 0.3% in paint of Example 1, zone of inhibition, 10 wk) was 0 and the “14 wk ZOI” value (Conc. 0.3% in paint of Example 1, zone of inhibition, 14 wk) was 0. The “18 wk ZOI” value (Conc. 0.3% in paint of Example 1, zone of inhibition, 18 wk) was 0.
In the case of Zinc pyrithione, the “4 wk Rating” value (Conc. 0.7% in paint of Example 1, algal growth rating 0-4, 4 wk) was 0, the “10 wk Rating” value (Conc. 0.7% in paint of Example 1, algal growth rating 0-4, 10 wk) was 0 and the “14 wk Rating” value (Conc. 0.7% in paint of Example 1, algal growth rating 0-4, 14 wk) was 0. The “4 wk ZOI” value (Conc. 0.7% in paint of Example 1, zone of inhibition, 4 wk) was 15 and the “18 wk ZOI” value (Conc. 0.7% in paint of Example 1, zone of inhibition, 18 wk) was 0.
